Assay results: patent US5001120A, “Use of A-Nor-steroids as malignant cells growth inhibitors” (Natural Pharmacia International, Inc., priority 1989, dated 1991)
≈ marks a conversion by molar mass, not a printed value. Where a name gives a salt, the structure may show the parent alone. Read-outs that look alike come from different tables or passages of the source.

Tests used:
[1] = test system: amitotic cells of cultured hamster's ascites tumor; conditions: Pincus and Gordon (1965); cited from earlier work
[2] = test system: lung carcinoma (A-549); test: In vitro ED50 against tumor cells, A-549; type: cell-based; conditions: Homo sapiens
Excerpt: (§1) The procedure of Geran, R. T., et al. Cancer Chemother. Rep. (Part 3) 3,1 (1972) (see K. H. Lee et al., Planta Medica, 308, 1988), was employed to determine the in vitro ED50 dose for NPI-007 and NPI-008 against human tumor cells, including the lymphoid leukemia (L 1210), the lung carcinoma (A-549), the ileocecal carcinoma (HCT-8), and the mammary gland carcinoma (MCF-7) cell lines. These cell lines were obtained from the American Type Culture Collection (Rockville, Md.).

[3] = test system: ileocecal carcinoma (HCT-8); test: In vitro ED50 against tumor cells, HCT-8; type: cell-based; conditions: Homo sapiens
Excerpt: as §1

[4] = test system: Lewis Lung Carcinoma; test: In vivo Antitumor Activity Against Lewis Lung Carcinoma; design: species or system Mice (DBF1); conditions: dosage mg × 7 Days: NPI-008 0.1, Cyclophosphamide 0.4; for Tumor Weight, 3 Days After Treatment: 10 mice, control 310 ± 51.5; for Tumor Weight, 8 Days After Treatment: 11 mice, control 772 ± 360
[5] = test system: lymphoid leukemia (L 1210); test: In vitro ED50 against tumor cells, L 1210; type: cell-based
Excerpt: as §1

[6] = test system: mammary gland carcinoma (MCF-7); test: In vitro ED50 against tumor cells, MCF-7; type: cell-based; conditions: Homo sapiens
Excerpt: as §1

[7] = test system: Ehrlich ascite tumor (ECA); test: In vivo Tumor Growth Inhibition Assay, ECA; design: species or system Swiss albino female mice; conditions: 0.1 mg/0.05 ml into thigh muscle every other day, 5 treatments; for Inhibition %: wet tumor weight vs control; for Wet Weight of Tumor (treatment group): ± SE (n=5), control 0.4162 ± 0.0767
Excerpt: (§2) Swiss albino female mice of 10-12 weeks old, weighing 17-20 grams were separated into two groups.
(§3) Sarcoma-180, Ehrlich ascite tumor (ECA) and U14 cell lines were separately maintained and propagated in MEM-F12 medium supplemented with 10% FCS. The cells were detached to suspension by use of 0.25% trypsin solution. After suspension, the cells were washed once with PBS and resuspended in sample buffered solution. The cells were counted by a coulter particle counting apparatus. Cells sized from 10-100 μ were obtained for calculation of dosage.
(§4) Animals were restrained manually and 0.2 ml cell suspension containing 10^7 to 2×10^7 cells/ml for S180, U14 or ECA were injected subcutaneously in left thorax ventrally adjacent to axillae. The selected A-nor-5α-androstane (5 mg) was dissolved in 2.5 ml phosphate buffered saline (pH 7.4) solution. A solution (0.1 mg/0.05 ml) was injected into thigh muscle every other day for 5 consecutive treatments. The injection site was alternated between right and left legs. […] Control animals received injection of the same amount of PBS in a manner similar to the treated groups.
(§5) At 2 days after the last (5th) treatment, animals were sacrificed by suffocation with carbon dioxide gas. The skin over the tumor site was reflected and the tumor mass dissected free from connective tissue and weighted with an electric balance.

[8] = test system: M14; test: In vivo Tumor Growth Inhibition Assay, M14; design: species or system Swiss albino female mice; conditions: 0.1 mg/0.05 ml into thigh muscle every other day, 5 treatments; for Inhibition %: wet tumor weight vs control; for Wet Weight of Tumor (treatment group): ± SE (n=5), control 1.1413 ± 0.1225
[9] = test system: Sarcoma-180; test: In vivo Tumor Growth Inhibition Assay, S180; design: species or system Swiss albino female mice; conditions: 0.1 mg/0.05 ml into thigh muscle every other day, 5 treatments; for Inhibition %: wet tumor weight vs control; for Wet Weight of Tumor (treatment group): ± SE (n=5), control 2.0939 ± 0.3835
Excerpt: as §2, §3, §4, §5

[10] = experimental animals (Ku, C.P. et al., 1975); cited from earlier work
[11] = cited from earlier work
[12] = experimental and clinical evidence; cited from earlier work

For 2α,17α-diethyl,2β-17β-diol, which “antiestrogenic activity (inhibition of estrogen-induced cell division)” value [1] is on record?
Its value is “possess antiestrogenic activity”.

Which “antiestrogenic activity (inhibition of estrogen-induced cell division)” value [1] does the source give for `C#C[C@]1(O)CC[C@H]2[C@@H]3CC[C@H]4C[C@H](C(C)=O)C[C@]4(C)[C@H]3CC[C@@]21C` [2α-acetyl-17α-ethynyl-17β-ol] here?
The value was “possess antiestrogenic activity”.

Which “antiestrogenic activity (inhibition of estrogen-induced cell division)” value [1] does the source give for `C#C[C@@]1(O)C[C@@H]2CC[C@@H]3[C@H](CC[C@]4(C)[C@@H](O)CC[C@@H]34)[C@@]2(C)C1` [2α-ethynyl-2β,17β-diol] here?
Its value is “possess antiestrogenic activity”.

Which “antiestrogenic activity (inhibition of estrogen-induced cell division)” value [1] does the source give for `C#C[C@@]1(O)C[C@@H]2CC[C@@H]3[C@H](CC[C@@]4(C)[C@H]3CC[C@]4(C)O)[C@@]2(C)C1` [2α-ethynyl-2β, 17β-diol-17α-methyl] here?
The value was “possess antiestrogenic activity”.

With `COc1cccc2c1C(=O)c1c(O)c3c(c(O)c1C2=O)C[C@@](O)(C(=O)CO)C[C@@H]3O[C@H]1C[C@H](N)[C@H](O)[C@H](C)O1` [Adriamycin HCl, reference compound] as the molecule, how does the IC50 ([2]; A549, read-out: ED50) read?
Its IC50 is 0.16 µg/mL.

What about the IC50 ([3]; HCT-8, read-out: ED50) of the same molecule?
The IC50 was 0.3 µg/mL.

With `O=P1(N(CCCl)CCCl)NCCCO1` (stereo not shown) [Cyclophosphamide, reference compound] as the molecule, how does the “Tumor Weight, 3 Days After Treatment” value [4] read?
Its value is 130 ± 31 mg.

What about the “Tumor Weight, 8 Days After Treatment” value [4] of the same molecule?
The value was 500 ± 275 mg.

What does the source list for `C#C[C@@]1(OC(=O)CC)C[C@@H]2CC[C@@H]3[C@H](CC[C@@]4(C)[C@H]3CC[C@]4(C#C)OC(=O)CC)[C@@]2(C)C1` [NPI-007, 2α,17α-diethynyl-A-nor-5α-androstane-2β,17β-diol dipropionate]?
IC50 ([5]; L1210, read-out: ED50): 4.5 µg/mL (≈ 10.3 µM); IC50 ([2]; A549, read-out: ED50): > 10 µg/mL; IC50 ([3]; HCT-8, read-out: ED50): 0.57 µg/mL (≈ 1.3 µM); IC50 ([6]; MCF7, read-out: ED50): 5.9 µg/mL (≈ 13.5 µM); Inhibition % [7]: 52.9%; Wet Weight of Tumor (treatment group) [7]: 0.1957 ± 0.0165 g; Inhibition % [8]: 43.4%; Wet Weight of Tumor (treatment group) [8]: 0.6464 ± 0.0536 g; Inhibition % [9]: 74.1%; Wet Weight of Tumor (treatment group) [9]: 0.5428 ± 0.1059 g; anti-implantation activity [10]: significant anti-implantation activity; hyperestrogenic side effect ([11]; clinical studies (Ku, C.P. et al., 1975)): hyperestrogenic side effect has been noted; anti-implantation activity ([11]; clinical trials (Hu, C. et al., 1982)): significant anti-implantation activity; anti-fertility activity [12]: significant anti-fertility activity

Which results are given for `C#C[C@@]1(OC(=O)CCC(=O)O)C[C@@H]2CC[C@@H]3[C@H](CC[C@@]4(C)[C@H]3CC[C@]4(C#C)OC(=O)CCC(=O)O)[C@@]2(C)C1` [NPI-008, 2α,17α-diethynyl-A-nor-5α-androstane-2β,17β-diol disuccinate]?
IC50 ([5]; L1210, L 1210, N = 4, read-out: ED50 (the source's name)): 5.87 µg/mL; IC50 ([2]; A549, A-549, N = 4, read-out: ED50 (the source's name)): > 10 µg/mL; IC50 ([3]; HCT-8, N = 4, read-out: ED50 (the source's name)): 0.41 µg/mL; IC50 ([6]; MCF7, MCF-7, N = 4, read-out: ED50 (the source's name)): 7.6 µg/mL; Inhibition % [7]: 90.0%; Wet Weight of Tumor (treatment group) [7]: 0.0416 ± 0.0120 g; Inhibition % [8]: 75.6%; Wet Weight of Tumor (treatment group) [8]: 0.2785 ± 0.0308 g; Inhibition % [9]: 87.0%; Wet Weight of Tumor (treatment group) [9]: 0.2722 ± 0.0872 g; Tumor Weight, 3 Days After Treatment [4]: 168 ± 53 mg; Tumor Weight, 8 Days After Treatment [4]: 175 ± 153 mg

Which results are given for `CC[C@]1(O)C[C@@H]2CN(CCc3c([nH]c4ccccc34)[C@@](C(=O)OC)(c3cc4c(cc3OC)N(C)[C@H]3[C@@](O)(C(=O)OC)[C@H](OC(C)=O)[C@]5(CC)C=CCN6CC[C@]43[C@@H]65)C2)C1` [Vinblastine sulfate, reference compound]?
IC50 ([2]; A549, read-out: ED50): 0.003 µg/mL; IC50 ([3]; HCT-8, read-out: ED50): 0.005 µg/mL

For `COc1cc([C@@H]2c3cc4c(cc3[C@@H](O[C@@H]3O[C@@H]5CO[C@@H](C)O[C@H]5[C@H](O)[C@H]3O)[C@H]3COC(=O)[C@H]23)OCO4)cc(OC)c1O` [etoposide, reference compound], which IC50 ([5]; L1210, read-out: ED50) is on record?
Its IC50 is 1.58 µg/mL (≈ 2.68 µM).
